Laboratory results from patent publication US10208065B2, “Crystalline free bases of C-Met inhibitor or crystalline acid salts thereof, and preparation methods and uses thereof” (Jiangsu Hansoh Pharmaceutical Group Co., Ltd., priority 2014, dated 2019).
In brackets after ≈: the same amount, converted by molar mass. Counter-ions that a name gives are not always drawn.

Legend:
[1] = Solubility in simulated biological media (37° C., HPLC); type: physicochemical; settings: for Solubility compared with the solubility of the free base: simulated biological media
Protocol: (§1) Procedure: About 10 mg of amorphous free base was weighed and placed in a 2 mL glass vial. Then, 1 mL of simulated biological media (simulated artificial gastric juice, simulated artificial intestinal juice-fasting, and simulated artificial intestinal juice-satiety), and a magnetic stirrer were added, and then the vial was sealed. The mixture was magnetically stirred at 37° C. and about 0.4 mL of the sample was taken at different time points. The mixture was filtered with a centrifuge tube (pore size of filter membrane: 0.45 μm), the filtrate was taken and the content of the compound of formula I therein was analyzed by HPLC.
as §1, with “crystal form I of” for “amorphous”, “vial,” for “vial. Then,”, “was” for “were”, “added,” for “added, and”
as §1, with “crystal form of the” for “amorphous”, “and” for “and then”
as §1, with “crystal form I of a phosphate salt” for “amorphous free base”, “(simulated is” for “(simulated”
as §1, with “crystal form III of the mesylate salt” for “amorphous free base”
as §1, with “crystal form III of the 1,5-naphthalenedisulfonate salt” for “amorphous free base”

[2] = Bioavailability in dog after single administration by gavage; type: in vivo; settings: 5 mg/kg
Protocol: It could be seen from FIG. 21 that the bioavailability of crystal form III of the mesylate salt was increased by 5 times in comparison to form I of the free base. Experimental conditions: the experimental animal was a dog, a dose of 5 mg/kg, single administration by gavage. Therefore, the salt-form compound has a significant improvement in comparison to the free base.

[3] = Accelerated stability test (HPLC purity, crystal form); type: physicochemical; settings: for Purity ratio: purity after test / initial purity
Protocol: The accelerated stability test of crystal form III of the mesylate salt was used for researching the physical and chemical stability of crystal form III of the mesylate salt. Specific procedure: After the sample was placed in an accelerated stability for a sufficient time under the conditions shown in the table below, the sample was taken out and dissolved in the mobile phase, and then its purity was determined by HPLC. Before the start of the accelerated stability test, the purity of the initial sample was determined by HPLC. The ratio of the purity of the sample after the accelerated stability test to the purity of the initial sample was used as a stability criterion. If the ratio was less than 95% purity, the sample was considered as unstable.

[4] = simulated artificial gastric juice
[5] = simulated artificial intestinal juice-fasting
[6] = simulated artificial intestinal juice-satiety
[7] = 40° C./75% relative humidity, 1 week

CN1C(=O)COc2c1cnc1ccc(Sc3nnc4c(F)cc(-c5cnn(C)c5)cn34)cc21 [Amorphous free base, 9-((8-fluoro-6-(1-methyl-1H-pyrazol-4-yl)-[1,2,4]triazolo[4,3-a]pyridin-3-yl)thio)-4-methyl-2H-[1,4]oxazino[3,2-c]quinolin-3(4H)-one]
Solubility (1 hour) [1, 4]: 11 µg/mL (≈ 23.8 µM)
Solubility (4 hours) [1, 4]: 9 µg/mL (≈ 19.5 µM)
Solubility (22 hours) [1, 4]: 9 µg/mL (≈ 19.5 µM)
Solubility (1 hour) [1, 5]: 2 µg/mL (≈ 4.33 µM)
Solubility (4 hours) [1, 5]: 2 µg/mL (≈ 4.33 µM)
Solubility (22 hours) [1, 5]: 2 µg/mL (≈ 4.33 µM)
Solubility (1 hour) [1, 6]: 3 µg/mL (≈ 6.5 µM)
Solubility (4 hours) [1, 6]: 2 µg/mL (≈ 4.33 µM)
Solubility (22 hours) [1, 6]: 2 µg/mL (≈ 4.33 µM)

CN1C(=O)COc2c1cnc1ccc(Sc3nnc4c(F)cc(-c5cnn(C)c5)cn34)cc21 [Crystal form I of free base, 9-((8-fluoro-6-(1-methyl-1H-pyrazol-4-yl)-[1,2,4]triazolo[4,3-a]pyridin-3-yl)thio)-4-methyl-2H-[1,4]oxazino[3,2-c]quinolin-3(4H)-one]
Solubility (1 hour) [1, 4]: 18 µg/mL (≈ 39 µM)
Solubility (4 hours) [1, 4]: 19 µg/mL (≈ 41.2 µM)
Solubility (22 hours) [1, 4]: 19 µg/mL (≈ 41.2 µM)
Solubility (1 hour) [1, 5]: 1 µg/mL (≈ 2.17 µM)
Solubility (4 hours) [1, 5]: 1 µg/mL (≈ 2.17 µM)
Solubility (22 hours) [1, 5]: 2 µg/mL (≈ 4.33 µM)
Solubility (1 hour) [1, 6]: 4 µg/mL (≈ 8.67 µM)
Solubility (4 hours) [1, 6]: 4 µg/mL (≈ 8.67 µM)
Solubility (22 hours) [1, 6]: 4 µg/mL (≈ 8.67 µM)

CN1C(=O)COc2c1cnc1ccc(Sc3nnc4c(F)cc(-c5cnn(C)c5)cn34)cc21 [Crystal form I of phosphate, 9-((8-fluoro-6-(1-methyl-1H-pyrazol-4-yl)-[1,2,4]triazolo[4,3-a]pyridin-3-yl)thio)-4-methyl-2H-[1,4]oxazino[3,2-c]quinolin-3(4H)-one]
Solubility (1 hour) [1, 4]: 128 µg/mL
Solubility (4 hours) [1, 4]: 135 µg/mL
Solubility (22 hours) [1, 4]: 135 µg/mL
Solubility (1 hour) [1, 5]: 8 µg/mL
Solubility (4 hours) [1, 5]: 4 µg/mL
Solubility (22 hours) [1, 5]: 3 µg/mL
Solubility (1 hour) [1, 6]: 32 µg/mL
Solubility (4 hours) [1, 6]: 33 µg/mL
Solubility (22 hours) [1, 6]: 27 µg/mL
Solubility compared with the solubility of the free base [1]: much greater

CN1C(=O)COc2c1cnc1ccc(Sc3nnc4c(F)cc(-c5cnn(C)c5)cn34)cc21 [Crystal form III of free base, 9-((8-fluoro-6-(1-methyl-1H-pyrazol-4-yl)-[1,2,4]triazolo[4,3-a]pyridin-3-yl)thio)-4-methyl-2H-[1,4]oxazino[3,2-c]quinolin-3(4H)-one]
Solubility (1 hour) [1, 4]: 40 µg/mL (≈ 86.7 µM)
Solubility (4 hours) [1, 4]: 43 µg/mL (≈ 93.2 µM)
Solubility (22 hours) [1, 4]: 43 µg/mL (≈ 93.2 µM)
Solubility (1 hour) [1, 5]: 4 µg/mL (≈ 8.67 µM)
Solubility (4 hours) [1, 5]: 4 µg/mL (≈ 8.67 µM)
Solubility (22 hours) [1, 5]: 4 µg/mL (≈ 8.67 µM)
Solubility (1 hour) [1, 6]: 11 µg/mL (≈ 23.8 µM)
Solubility (4 hours) [1, 6]: 11 µg/mL (≈ 23.8 µM)
Solubility (22 hours) [1, 6]: 10 µg/mL (≈ 21.7 µM)

CN1C(=O)COc2c1cnc1ccc(Sc3nnc4c(F)cc(-c5cnn(C)c5)cn34)cc21 [Crystal form III of mesylate, 9-((8-fluoro-6-(1-methyl-1H-pyrazol-4-yl)-[1,2,4]triazolo[4,3-a]pyridin-3-yl)thio)-4-methyl-2H-[1,4]oxazino[3,2-c]quinolin-3(4H)-one]
Increase of bioavailability in comparison to form I of the free base [2]: 5 times
Crystal transformation after the accelerated stability test [3, 7]: No
Purity after the accelerated stability test ([3]; 40° C./75% relative humidity, 1 week, initial purity 98.2%): 98.8%
Purity ratio [3, 7]: 100.6%
Physical and chemical stability ([3]; 80° C. 1 day and 40° C./75% relative humidity 1 week): good physical and chemical stability
Crystal transformation after the accelerated stability test ([3]; 80° C., 1 day): No
Purity after the accelerated stability test ([3]; 80° C., 1 day, initial purity 99.9%): 99.7%
Purity ratio ([3]; 80° C., 1 day): 99.8%
Solubility (1 hour) [1, 4]: 211 µg/mL
Solubility (4 hours) [1, 4]: 200 µg/mL
Solubility (22 hours) [1, 4]: 12.5 µg/mL
Solubility (1 hour) [1, 5]: 5 µg/mL
Solubility (4 hours) [1, 5]: 5 µg/mL
Solubility (22 hours) [1, 5]: 5 µg/mL
Solubility (1 hour) [1, 6]: 20 µg/mL
Solubility (4 hours) [1, 6]: 14 µg/mL
Solubility (22 hours) [1, 6]: 10 µg/mL
Solubility compared with the solubility of the free base [1]: much greater

CN1C(=O)COc2c1cnc1ccc(Sc3nnc4c(F)cc(-c5cnn(C)c5)cn34)cc21 [Crystal form III of the 1,5-naphthalenedisulfonate salt] [9-((8-fluoro-6-(1-methyl-1H-pyrazol-4-yl)-[1,2,4]triazolo[4,3-a]pyridin-3-yl)thio)-4-methyl-2H-[1,4]oxazino[3,2-c]quinolin-3(4H)-one]
Solubility (1 hour) [1, 4]: 182 µg/mL
Solubility (4 hours) [1, 4]: 27 µg/mL
Solubility (22 hours) [1, 4]: 30 µg/mL
Solubility (1 hour) [1, 5]: 12 µg/mL
Solubility (4 hours) [1, 5]: 10 µg/mL
Solubility (22 hours) [1, 5]: 5 µg/mL
Solubility (1 hour) [1, 6]: 48 µg/mL
Solubility (4 hours) [1, 6]: 33 µg/mL
Solubility (22 hours) [1, 6]: 13 µg/mL
Solubility compared with the solubility of the free base [1]: much greater
